Measured values: the RepoRT retention time repository (doi:10.1007/s00216-013-6954-6)

Assay: RP, Waters ACQUITY UPLC HSS T3, 100 × 1 mm, 1.8 µm; A: water + 0.1% formic acid, pH 3; B: acetonitrile + 0.1% formic acid, pH 3; gradient (min/%B) 0/5 1/5 16/95 18/95 20/5
Details: stereoisomer not certain

Compound	LC retention time
COc1cccc2[nH]cc(CN)c12 [4-MeO-I3CH2NH2]	3.2 min
CC(CCC(=O)NCCS(=O)(=O)O)C1CCC2C3C(O)CC4CC(O)CCC4(C)C3CC(O)C12C (configuration not stated) [Taurocholic acid]	7.57 min
O=C(O)c1c[nH]c2ccccc12 [Indole-3-carboxylic acid (I3CO2H)]	4.7 min
CCCCCCCCCCCCCCCC(=O)OCC(O)COP(=O)([O-])OCC[N+](C)(C)C (configuration not stated) [lysoPC(16:0/0:0)]	11.6 min
O=C1CCC(C(=O)O)N1 (configuration not stated) [Pyroglutamic acid]	0.687 min
COc1cc(C=CCO)cc(OC)c1OC1OC(CO)C(O)C(O)C1O (configuration not stated) [Syringin]	3.2 min
Cc1cc2nc3c(=O)[nH]c(=O)nc-3n(CC(O)C(O)C(O)CO)c2cc1C (configuration not stated) [Riboflavin]	3.92 min
CCC(C)C(N)C(=O)NC(CC(C)C)C(=O)O (stereo not drawn) [H-Ile-Leu-OH]	3.4 min
CS(=O)CCCCCCCCN=C=S (stereo not drawn) [8-MeSO-Octyl-NCS]	8.1 min
CC(C)CC(N)C(=O)NC(Cc1ccccc1)C(=O)O (configuration not stated) [H-Leu-Phe -OH]	4.2 min
NC(N)=NCCCC(N)C(=O)O (configuration not stated) [Arginine]	0.413 min
CCC(C)C(NC(=O)C(N)Cc1ccccc1)C(=O)O (stereo not drawn) [H-Phe-Ile-OH]	3.8 min
COc1cc2ccc(=O)oc2cc1OC1OC(CO)C(O)C(O)C1O (configuration not stated) [Scopolin]	3.3 min
COc1cc(CC2COC(c3ccc(O)c(OC)c3)C2CO)ccc1O (configuration not stated) [Lariciresinol]	5.6 min
NCCS(=O)(=O)O [Taurine]	0.446 min
Cc1cn(C2CC(O)C(CO)O2)c(=O)[nH]c1=O (configuration not stated) [Thymidine]	1.6 min
CC(C)CC(NC(=O)C(N)Cc1ccccc1)C(=O)O (stereo not drawn) [H-Phe-Leu-OH]	4.1 min
CC(CCC(=O)O)C1CCC2C3C(O)CC4CC(O)CCC4(C)C3CC(O)C12C (configuration not stated) [Cholic acid]	8.94 min
CC(CCC(=O)O)C1CCC2C3C(O)CC4CC(O)CCC4(C)C3CCC12C (configuration not stated) [Chenodeoxycholic acid]	10.5 min
O=C(O)CCCC(=O)O [Glutaric acid]	1.14 min
O=C(O)C1CCCN1 (configuration not stated) [Proline]	0.482 min
CC(CCC(=O)NCC(=O)O)C1CCC2C3C(O)CC4CC(O)CCC4(C)C3CC(O)C12C (configuration not stated) [Glycocholic acid]	7.92 min

Compound	LC retention time
CC12CCC(=O)C=C1CCC1C2C(O)CC2(C)C1CCC2(O)C(=O)CO (configuration not stated) [hydrocortisone, cortisol]	6.56 min
CC(C(=O)O)C(=O)O [Methylmalonic acid]	0.733 min
CC(C)CC(NC(=O)C(N)Cc1ccc(O)cc1)C(=O)O (stereo not drawn) [H-Tyr-Leu-OH]	3.2 min
Nc1nc2c(ncn2C2OC(CO)C(O)C2O)c(=O)[nH]1 (configuration not stated) [Guanosine]	1.1 min
CCC(C)C(NC(=O)C(N)CC(C)C)C(=O)O (stereo not drawn) [H-Leu-Ile-OH]	3.3 min
CC(C)CC(N)C(=O)N1CCCC1C(=O)O (stereo not drawn) [H-Leu-Pro-OH]	2.6 min
CSCCCCCCCC(N)C(=O)O (configuration not stated) [Pentahomo-Met]	4.6 min
O=c1ccc2cc(OC3OC(CO)C(O)C(O)C3O)c(O)cc2o1 (configuration not stated) [Esculin]	2.9 min
NCc1c[nH]c2ccccc12 [Indol-3-ylmethylamine (I3CH2NH2)]	1.8 min
O=c1[nH]cnc2c1ncn2C1OC(CO)C(O)C1O (configuration not stated) [Inosine]	0.839 min
Cn1c(=O)c2c(ncn2C)n(C)c1=O [Caffeine]	3.46 min
Nc1ncnc2nc[nH]c12 [Adenine]	0.525 min
CSCCCCCCCCC(N)C(=O)O (configuration not stated) [Hexahomo-Met]	5.4 min
COc1cc(C=CCO)ccc1OC1OC(CO)C(O)C(O)C1O (configuration not stated) [Coniferin]	3 min
CSCCC(N)C(=O)O (configuration not stated) [Methionine]	0.643 min
NCC(=O)NC(Cc1ccccc1)C(=O)O (stereo not drawn) [H-Gly-Phe-OH]	2.3 min
O=C(O)CNC(=O)c1ccccc1 [Hippuric acid]	3.39 min
CC(CCC(=O)O)C1CCC2C3CCC4CC(O)CCC4(C)C3CC(O)C12C (configuration not stated) [Deoxycholic acid]	10.7 min
O=C(O)Cc1ccccc1 [Phenylacetic acid]	3.6 min
O=C(O)CCCCCC(=O)O [Pimelic acid]	3.47 min
CC12CCC(=O)C=C1CCC1C2C(=O)CC2(C)C1CCC2(O)C(=O)CO (configuration not stated) [Cortisone]	6.61 min
CCC(C)C(NC(=O)C(N)Cc1ccc(O)cc1)C(=O)O (stereo not drawn) [H-Tyr-Ile-OH]	2.9 min

Assay: RP, Waters ACQUITY UPLC HSS T3, 150 × 2.1 mm, 1.8 µm; A: water + 0.1% formic acid; B: acetonitrile + 0.1% formic acid; gradient (min/%B) 0/5 1/5 16/95 18/95
Details: stereoisomer not certain

Compound	LC retention time
COc1cccc2[nH]cc(CN)c12	3.2 min
O=C(O)Cc1ccccc1	3.6 min
Cn1c(=O)c2c(ncn2C)n(C)c1=O	3.46 min
NC(Cc1ccccc1)C(=O)NCC(=O)O (configuration not stated)	1.7 min
CSCCCCCCCCC(N)C(=O)O (configuration not stated)	5.4 min
COc1cc2ccc(=O)oc2cc1OC1OC(CO)C(O)C(O)C1O (configuration not stated)	3.3 min
O=c1ccc2cc(OC3OC(CO)C(O)C(O)C3O)c(O)cc2o1 (configuration not stated)	2.9 min
CCC(C)C(NC(=O)C(N)CC(C)C)C(=O)O (configuration not stated)	3.3 min
CC(C)CC(NC(=O)C(N)Cc1ccccc1)C(=O)O (configuration not stated)	4.1 min
CCC(C)C(N)C(=O)NC(C(=O)O)C(C)CC (configuration not stated)	3.1 min
O=Cc1c[nH]c2ccccc12	4.8 min
CSCCCCCCCC(N)C(=O)O (configuration not stated)	4.6 min
CC(C)CC(N)C(=O)NC(CC(C)C)C(=O)O (configuration not stated)	3.6 min
CC(C)CC(N)C(=O)N1CCCC1C(=O)O (configuration not stated)	2.62 min
NC(N)=NCCCC(N)C(=O)O (configuration not stated)	0.413 min
CC(C)CC(N)C(=O)NC(Cc1ccccc1)C(=O)O (configuration not stated)	4.2 min
CC(CCC(=O)NCCS(=O)(=O)O)C1CCC2C3C(O)CC4CC(O)CCC4(C)C3CC(O)C12C (configuration not stated)	7.57 min
CC(CCC(=O)O)C1CCC2C3C(O)CC4CC(O)CCC4(C)C3CCC12C (configuration not stated)	10.5 min
CSCCC(N)C(=O)O (configuration not stated)	0.643 min
O=C(O)CCCCCCCC(=O)O	5.35 min
CCC(C)C(N)C(=O)NC(CC(C)C)C(=O)O (configuration not stated)	3.4 min
CC(C)CC(N)C(=O)O (configuration not stated)	0.795 min
CCC(C)C(NC(=O)C(N)Cc1ccc(O)cc1)C(=O)O (configuration not stated)	2.9 min

Compound	LC retention time
CC(C)C(N)C(=O)NC(Cc1ccccc1)C(=O)O (configuration not stated)	3.3 min
CC(C(=O)O)C(=O)O	0.733 min
COn1cc(CN)c2ccccc21	3.7 min
NCc1c[nH]c2ccccc12	1.8 min
O=C(O)C1CCCN1 (configuration not stated)	0.482 min
CC(C)CC(N)C(=O)NC(Cc1ccc(O)cc1)C(=O)O (configuration not stated)	2.8 min
COc1cc(C=CCO)cc(OC)c1OC1OC(CO)C(O)C(O)C1O (configuration not stated)	3.2 min
NC(=O)NCCCC(N)C(=O)O (configuration not stated)	0.457 min
O=c1[nH]c(=O)c2[nH]c(=O)[nH]c2[nH]1	0.643 min
COc1cc(C=CCO)ccc1OC1OC(CO)C(O)C(O)C1O (configuration not stated)	3 min
Cc1cc2nc3c(=O)[nH]c(=O)nc-3n(CC(O)C(O)C(O)CO)c2cc1C (configuration not stated)	3.92 min
CC(CCC(=O)NCC(=O)O)C1CCC2C3C(O)CC4CC(O)CCC4(C)C3CC(O)C12C (configuration not stated)	7.92 min
CC12CCC(=O)C=C1CCC1C2C(O)CC2(C)C1CCC2(O)C(=O)CO (configuration not stated)	6.56 min
Nc1ccc(C(=O)O)cc1	1.95 min
O=C(O)C1Cc2c([nH]c3ccccc23)CN1 (configuration not stated)	3.1 min
CC(CCC(=O)O)C1CCC2C3C(O)CC4CC(O)CCC4(C)C3CC(O)C12C (configuration not stated)	8.94 min
CCC(C)C(N)C(=O)O (configuration not stated)	0.795 min
O=C1CCC(C(=O)O)N1 (configuration not stated)	0.687 min
O=C(O)CCCCCC(=O)O	3.47 min
O=C(O)C(O)Cc1ccccc1 (configuration not stated)	4.37 min
Cn1cnc(CC(N)C(=O)O)c1 (configuration not stated)	0.407 min
Nc1nc2c(ncn2C2OC(CO)C(O)C2O)c(=O)[nH]1 (configuration not stated)	1.1 min
CC(C)CC(NC(=O)C(N)Cc1ccc(O)cc1)C(=O)O (configuration not stated)	3.2 min

Compound	LC retention time
COc1cc(CC2COC(c3ccc(O)c(OC)c3)C2CO)ccc1O (configuration not stated)	5.6 min
NCCS(=O)(=O)O	0.446 min
O=Cc1c[nH]c2cccc(O)c12	5.1 min
O=C(O)CCCC(=O)O	1.14 min
CCCCCCCCC=CCCCCCCCC(=O)OCC(O)COP(=O)(O)OCC[N+](C)(C)C (configuration not stated)	12 min
CC(CCC(=O)O)C1CCC2C3CCC4CC(O)CCC4(C)C3CC(O)C12C (configuration not stated)	10.7 min
CS(=O)CCCCCCCCN=C=S (configuration not stated)	8.1 min
NCC(=O)NC(Cc1ccccc1)C(=O)O (configuration not stated)	2.3 min
CCC(C)C(NC(=O)C(N)Cc1ccccc1)C(=O)O (configuration not stated)	3.8 min
CCC(C)C(N)C(=O)NC(Cc1ccccc1)C(=O)O (configuration not stated)	3.9 min
CC12CCC(=O)C=C1CCC1C2C(=O)CC2(C)C1CCC2(O)C(=O)CO (configuration not stated)	6.61 min
Nc1ncnc2nc[nH]c12	0.525 min
O=C(O)CCCCC(=O)O	2.33 min
O=C(O)c1c[nH]c2ccccc12	4.7 min
CCCCCCCCCCCCCCCC(=O)OCC(O)COP(=O)([O-])OCC[N+](C)(C)C (configuration not stated)	11.6 min
CC(C)C(NC(=O)C(N)Cc1ccccc1)C(=O)O (configuration not stated)	3 min
CC(C)CC(NC(=O)C(N)C(C)C)C(=O)O (configuration not stated)	2.7 min
Cc1cn(C2CC(O)C(CO)O2)c(=O)[nH]c1=O (configuration not stated)	1.6 min
O=C(O)CNC(=O)c1ccccc1	3.39 min
COc1cc2ccc(=O)oc2cc1O	4.5 min
O=c1cc[nH]c(=O)[nH]1	0.638 min
O=c1[nH]cnc2c1ncn2C1OC(CO)C(O)C1O (configuration not stated)	0.839 min
